The values below come from patent US8889727B2, “Topical antifungal agent” (Meiji Seika Pharma Co., Ltd., priority 2011, dated 2014).

Data set [1] relates to T. mentagrophytes ATCC18748. The data set can be described thus: Measurement of antifungal activity (MIC, WST8 growth inhibition). The data set is classed as cell-based. The note with it: Trichophyton mentagrophytes, 72 h; 80% growth inhibition concentration; T. mentagrophytes ATCC18748, RPMI1640/MOPS, 28° C., 3 days. The procedure: (§1) The compounds for evaluation were dissolved in dimethyl sulfoxide (DMSO) and used. As the test medium, RPMI1640 medium containing 0.165 M 3-morpholino propane sulfonic acid (MOPS) was used. As the test strain, T. mentagrophytes ATCC18748 or T. rubrum ATCC10218 was used. 100 μL of the test strain each at a concentration of 1×10^4 conidia/mL was dispensed, mixed with compounds for evaluation on 96 well half area plate so that the concentration of DMSO becomes 1%, and cultured at 28° C. for 3 days (for T. mentagrophytes) or for 4 days (for T. rubrum). Then, 5 μL of Cell Counting Kit8 (WST8) was added and the absorbances at 450 nm and 595 nm was measured as background. Subsequently, they were incubated at 28° C. for 5 hours (for T. mentagrophytes) or overnight (for T. rubrum) to color, and again the absorbances at 450 nm and 595 nm was measured, and then calculated the growth inhibition percentages using the differences from the background, and 80% growth inhibition concentration was regarded as MIC (μg/ml). Measurement of antifungal activity was conducted by the following method. Compounds for evaluation were dissolved in dimethyl sulfoxide (DMSO) and used. As the test medium, RPMI1640 medium containing 0.165 M 3-morpholinopropane sulfonic acid (MOPS) was used. As the test strain, T. mentagrophytes ATCC18748 or T. rubrum ATCC10218 was used. 100 μL of the test strain was dispensed at a concentration of 1×10^4 conidia/mL, mixed with compounds for evaluation on 96 well half area plate so that the concentration of DMSO becomes 1%, and cultured at a culture temperature of 28° C. for 3 days (for T. mentagrophytes) or for 4 days (for T. rubrum). Then, 5 μL of Cell Counting Kit8 (WST8) was added and the absorbances at 450 nm and 595 nm was measured as background. Subsequently, they were incubated at 28° C. for 5 hours (for T. mentagrophytes) or overnight (for T. rubrum), and again measured the absorbances at 450 nm and 595 nm was measured, and then calculated the growth inhibition percentages using the differences from the background, and 80% growth inhibition concentration was regarded as MIC (μg/ml).

Another data set has as its system T. rubrum ATCC10218. The data set is described as above. The data set is classed as cell-based. The note with it: Trichophyton rubrum, 96 h; 80% growth inhibition concentration; T. rubrum ATCC10218, RPMI1640/MOPS, 28° C., 4 days. The procedure:
as §1

Data set [2] can be described thus: Nail permeability test (bovine hoof slice on agarose). The data set is classed as in vitro ADME. Conditions: 2 μL of 10 mg/mL solution on bovine hoof slice (about 100 μm), 28° C., 5 days. The procedure:
Compounds for evaluation were each dissolved in a solution of ethyl acetate:propylene glycol (1:1) or dimethyl sulfoxide at a concentration of 10 mg/mL. 2 μL each of the solutions was added to a bovine hoof slice placed on a low-melting-point agarose. After incubation at 28° C. for 5 days, the agaroses were collected, distilled water was added thereto, and the mixtures were heated and dissolved. The concentrations of the compound in the solutions were determined using a high performance liquid chromatography/mass spectrometry apparatus to obtain the amounts of the agents permeated through the hoof and to calculate the permeabilities of the respective agents. Since the permeability of bovine hoof and human nail correlates as described in J. Pharma. Pharmacol., vol. 49, pp. 866-872, 1997, the nail permeability test was conducted using a bovine hoof in the present invention. Example compounds and comparative compounds (amorolfine hydrochloride, terbinafine hydrochloride and ciclopirox) were each dissolved in a solution of ethyl acetate:propylene glycol (1:1) or dimethyl sulfoxide at a concentration of 10 mg/mL. […] The concentrations of the compounds in the solutions were determined using a high performance liquid chromatography/mass spectrometry apparatus to obtain the amounts of the agents permeated through the nail and calculate the permeabilities of the respective agents.

Where a name gives a salt, the structure may show the parent alone. A value given as a limit tells only on which side of the number the result lay.

In general, MIC refers to the least concentration at which growth counts as inhibited. Lower therefore signals inhibition by little substance.

`CCC(C)(C)c1ccc(CC(C)CN2C[C@@H](C)O[C@@H](C)C2)cc1` (stereo partly drawn) [Amorolfine hydrochloride, reference compound]: the MIC in data set [1] was ≤ 1 µg/mL; in the data set with T. rubrum ATCC10218, ≤ 2 µg/mL. Also, the Nail permeability entry in data set [2] is on record as “E (<0.1%)”.

As for `CN(C/C=C/C#CC(C)(C)C)Cc1cccc2ccccc12` [Terbinafine hydrochloride, reference compound], the MIC was ≤ 1 µg/mL in data set [1] and ≤ 2 µg/mL with T. rubrum ATCC10218. Also, in data set [2], the Nail permeability entry was “E (<0.1%)”.
